Reference: ChEMBL document CHEMBL4715815, “Design, synthesis and biological evaluation of 7H-pyrrolo[2,3-d]pyrimidin-4-amine derivatives as selective Btk inhibitors with improved pharmacokinetic properties for the treatment of rheumatoid arthritis” (Eur J Med Chem, 2018)
In brackets after ≈: the same amount, converted by molar mass. Activity calls are given as the source filed them. The rule behind the calls is not given here.

Tests used:
[1] = Aqueous solubility of compound at 1 mg; settings: aqueous medium
[2] = test system: HEK293; test: Cytotoxicity against human HEK293 cells assessed as reduction in cell viability incubated for 72 hrs by MTT assay; format: ADME, cell-based; settings: HEK293, 72 h
[3] = test system: L02; test: Cytotoxicity against human L02 cells assessed as reduction in cell viability incubated for 72 hrs by MTT assay; format: ADME, cell-based; settings: L02, 72 h
[4] = test system: THP-1; test: Cytotoxicity against human THP-1 cells assessed as reduction in cell viability incubated for 72 hrs by MTT assay; format: ADME, cell-based; settings: THP-1, 72 h
[5] = target: Tyrosine-protein kinase BTK (Homo sapiens, UniProt Q06187); test: Inhibition of BTK (unknown origin) by caliper mobility shift assay
[6] = Inhibition of recombinant human PI3K using PIP2 as substrate incubate for 15 mins by LANCE assay
[7] = test system: Mus musculus; test: Antiarthritic activity in DBA/1J mouse model of collagen-induced arthritis at 20 mg/kg, po administered for 30 days and measured on day 30; format: functional, organism-based; settings: time 30.0 day

Sequence of Tyrosine-protein kinase BTK (Q06187 whole entry): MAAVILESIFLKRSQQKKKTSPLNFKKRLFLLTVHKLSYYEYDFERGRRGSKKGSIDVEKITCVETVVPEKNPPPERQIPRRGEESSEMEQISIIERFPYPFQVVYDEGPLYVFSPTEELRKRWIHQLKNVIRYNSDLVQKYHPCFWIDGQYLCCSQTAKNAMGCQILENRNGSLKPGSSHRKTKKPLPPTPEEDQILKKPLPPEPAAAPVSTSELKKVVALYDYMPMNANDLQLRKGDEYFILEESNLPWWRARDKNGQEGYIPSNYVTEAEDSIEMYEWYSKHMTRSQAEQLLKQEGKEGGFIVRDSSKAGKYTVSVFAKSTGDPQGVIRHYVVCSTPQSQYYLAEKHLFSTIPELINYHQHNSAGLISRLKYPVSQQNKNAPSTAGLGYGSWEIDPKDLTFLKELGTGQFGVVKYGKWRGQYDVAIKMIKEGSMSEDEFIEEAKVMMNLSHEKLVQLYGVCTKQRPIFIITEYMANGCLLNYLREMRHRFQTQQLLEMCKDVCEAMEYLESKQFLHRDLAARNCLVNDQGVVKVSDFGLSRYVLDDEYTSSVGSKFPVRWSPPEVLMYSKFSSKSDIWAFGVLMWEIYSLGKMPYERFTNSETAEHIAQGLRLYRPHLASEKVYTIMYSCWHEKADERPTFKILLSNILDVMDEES

SMILES	solubility [1]	IC50 [2]	IC50 [3]	IC50 [4]	IC50 [5]	IC50 [6]	Activity [7]
C=CS(=O)(=O)N1CCC(Cn2cc(-c3ccc(Oc4ccccc4)cc3)c3c(N)ncnc32)CC1	< 10 µg/mL	2700 nM	3.2 µM	3.3 µM			
C=CC(=O)N1CCC(CCn2cc(-c3ccc4c(c3)OCO4)c3c(N)ncnc32)CC1	< 100 µg/mL						
C=CC(=O)N1CCC(Cn2cc(-c3ccc(OCc4ccccc4)cc3)c3c(N)ncnc32)CC1	< 10 µg/mL				77 nM		
C=CC(=O)N1CCC(Cn2cc(-c3ccc(Oc4ccccc4)cc3)c3c(N)ncnc32)CC1	< 10 µg/mL	13300 nM	16 µM	16.7 µM	6.09 nM		
C=CC(=O)N1CCCC(Cn2cc(-c3ccc4c(c3)OCO4)c3c(N)ncnc32)C1 (single isomer, unassigned; form 2)	100 µg/mL (≈ 247 µM)						
C=CC(=O)N1CCC(Cn2nc(-c3ccc4c(c3)OCO4)c3c(N)ncnc32)CC1	100 µg/mL (≈ 246 µM)						
CN(C)C/C=C/C(=O)N1CCC(Cn2cc(-c3ccc(Oc4ccccc4)cc3)c3c(N)ncnc32)CC1	< 10 µg/mL	4800 nM	6.6 µM	3.2 µM			
C=CC(=O)N1CCCC(Cn2cc(-c3ccc4c(c3)OCO4)c3c(N)ncnc32)C1 (single isomer, unassigned; form 1)	100 µg/mL (≈ 247 µM)						
C=CC(=O)N1CCCC(Cn2cc(-c3ccc(Oc4ccccc4)cc3)c3c(N)ncnc32)C1 (single isomer, unassigned; form 1)	< 10 µg/mL	2900 nM	11.7 µM	8.8 µM			
C=CC(=O)N1CCC[C@@H](n2nc(-c3ccc(Oc4ccccc4)cc3)c3c(N)ncnc32)C1 [IBRUTINIB]	< 10 µg/mL	19300 nM	17.4 µM	20.1 µM		> 10 µM	Active
C=CC(=O)N1CCC(CCn2cc(-c3ccc(Oc4ccccc4)cc3)c3c(N)ncnc32)CC1	< 10 µg/mL	10200 nM	15.2 µM	18.9 µM			
C=CS(=O)(=O)N1CCC(Cn2nc(-c3ccc4c(c3)OCO4)c3c(N)ncnc32)CC1	100 µg/mL (≈ 226 µM)	2800 nM	10.1 µM	14.4 µM			
C=CC(=O)N1CCCC(Cn2cc(-c3ccc(Oc4ccccc4)cc3)c3c(N)ncnc32)C1 (single isomer, unassigned; form 2)	< 10 µg/mL	1300 nM	14.2 µM	10.7 µM			
C=CS(=O)(=O)N1CCC(Cn2nc(-c3ccc(Oc4ccccc4)cc3)c3c(N)ncnc32)CC1	< 10 µg/mL	1600 nM	19.1 µM	18.3 µM			
C=CS(=O)(=O)N1CCC(Cn2cc(-c3ccc4c(c3)OCO4)c3c(N)ncnc32)CC1	100 µg/mL (≈ 226 µM)	2500 nM	3.2 µM	3.7 µM			
C=CC(=O)N1CCC(Cn2nc(-c3ccc(Oc4ccccc4)cc3)c3c(N)ncnc32)CC1	< 10 µg/mL	11200 nM	10.9 µM	15.7 µM			
CN(C)C/C=C/C(=O)N1CCC(Cn2cc(-c3ccc4c(c3)OCO4)c3c(N)ncnc32)CC1	< 100 µg/mL						
